Results on 1 molecule are retold here after US20030040531A1, “Remedies for reperfusion injury containing integrin alphanubeta 3 antagonist” (priority 2000, published 2003).

The subject of series [1] is platelet aggregation. Kind of series: inhibition of platelet aggregation, dog. It is filed as cell-based. Conditions: Canis lupus familiaris, read-out: concentration (IC50) necessary for inhibition of platelet aggregation.
Series [2] relates to rat acute myocardial ischemia-reperfusion model. Kind of series: rat acute myocardial ischemia-reperfusion model. The class given is in vivo. To be noted: for myocardial infarct size (proportion of the infarct area in the left ventricle): average value±SE, n=5. Here is the method:
Male Wistar rats (330 to 420 g) were subjected to controlled respiration using an artificial respirator under pentobarbital anesthesia (60 mg/kg, i.p.), and the blood pressure and the heart rate were measured through a blood pressure amplifier and a heart rate unit. Further, for the ischemia of the myocardium, an increase in voltage of R-wave in the II leading in an electrocardiogram was confirmed with a monitor through a bioelectricity amplifier. The rats underwent thoracotomy, and the coronary artery, together with the myocardium, was then occluded using a suture with a needle. Ischemia for 3 min and reperfusion for 5 min were followed by ischemia for 45 min and reperfusion for 45 min. Medicaments tested and concentrations thereof were 3 mg/kg+3 mg/kg/hr (bolus +infusion) (L; low dose group) and 6 mg/kg+3 mg/kg/hr (bolus +infusion) (H; high dose group) for the compound represented by formula (V); 3 mg/kg+3 mg/kg/hr (bolus +infusion) for the compound represented by formula (VI); 3 mg/kg+3 mg/kg/hr (bolus +infusion) (L; low dose group) and 6 mg/kg+3 mg/kg/hr (bolus +infusion) (H; high dose group) for the compound represented by formula (IV); 5 mg/kg+5 mg/kg/hr(bolus +infusion)(L; low dose group) and 10 mg/kg+10 mg/kg/hr (bolus +infusion) (H; high dose group) for the compound represented by formula (VII); and 1 mg/kg+1 mg/kg/hr (bolus+infusion) (L; low dose group) and 6 mg/kg+6 mg/kg/hr (bolus+infusion) (H; high dose group) for the compound represented by formula (VIII). For a control group (group C), a 10% (v/v) dimethyl sulfoxide/5% glucose solution was administered, and each medicament was dissolved in the same solvent. The dose volume was 3 ml/kg+3 ml/kg/h (bolus+infusion). The medicament was continuously administered through an infusion pump for the period starting with one min before the ischemia and ending with the completion of the experiment. After reperfusion for 45 min, the rats were slaughtered by excessive administration of pentobarbital, and the heart was removed. After perfusion with a Ringer solution, perfusion staining was carried out with 1.5% triphenyltetrazolium chloride, and the proportion of the infarct area in the left ventricle was quantitatively determined. For animals used in the experiment, each group consisted of 5 rats.

In series [3] the test system is U937 cells. Description: adhesion of human monocytes (U937 cells) to human activated vascular endothelial cells. It is filed as cell-based. To be noted: average on three wells±SD, control group 4522±1027. Here is the method:
The adhesion of human monocytes to vascular endothelial cells was measured with reference to the method of Murphy et al. (J. F. Murphy et al., Biochem. J. 304, 537 (1994)). Human funicular venoendothelial cells (4×10^4/well), which had been cultivated in a type-I collagen-coated flask containing a 199 medium containing an endothelial cell growth factor (15 μg/ml), heparin (5 U/ml), and 20% fetal calf serum, were cultivated using a type-I collagen-coated microplate in the above medium under 5% carbon dioxide at 37° C. for 2 days to prepare a layer of vascular endothelial cells. The layer of vascular endothelial cells was washed with PBS (−) and was then cultivated in PBS (−) containing 1 U/ml bovine thrombin, 5 mM CaCl2, and 5 mM MgCl2 for 5 min, followed -by washing with PBS(−) containing 10^-6 M D-phenylalanyl-L-prolyl-L-argininechloromethane and with PBS(−).
Next, U937 cells, which had been cultivated in an RPMI 1640 medium containing 10% fetal calf serum, were cultivated in the above medium containing 6 μM 2′,7′-bis(carboxyethyl)carboxyfluorescein tetraacetoxymethyl ester under 5% carbon dioxide at 37° C. for one hr, were washed with PBS (−), and were subjected to fluorescent labeling. The labeled U937 cells (2×10^5/well), the medicament, and 100 μl of an RPMI 1640 medium containing 1% fetal calf serum were added onto the layer of vascular endothelial cells, and an adhesion reaction was allowed to proceed under 5% carbon dioxide at 37° C. for 10 min. Next, nonadherent cells were removed, and 50 mM Tris HCl (pH 8.4) containing 0.1% sodium dodecylsulfate was added to elute the fluorescent dye, followed by fluorometry (excitation wavelength 485 nm, measurement wavelength 530 nm).

The mark [4] stands for this setting: 3 mg/kg+3 mg/kg/hr (bolus+infusion).
Where [5] appears, read: 6 mg/kg+3 mg/kg/hr (bolus+infusion), group H.

In the case of `O=C(NCC(NS(=O)(=O)c1ccccc1)C(=O)O)c1ccc(N2CCC(NC3=NCCCN3)CC2)c(F)c1` (stereo in doubt) [formula (IV), (2S)-Benzenesulfonylamino-3-[3-fluoro-4-{4-(1,4,5,6-tetrahydropyrimidin-2-ylamino)-piperidin-1-yl}benzoylamino]propionic Acid], the IC50 in series [1] amounted to 45 nM. Besides, the “reduction of myocardial infarct size as compared with group C” value worked out at 17.8% in series [2] (setting [4]) and 35.1% in series [2] (setting [5]). Moreover, the “myocardial infarct size (proportion of the infarct area in the left ventricle)” value in series [2] (setting [4]) stood at 32.3±4.9%; in series [2] (setting [5]), 25.5±1.5%. For the same molecule, the “influence on the blood pressure and the heart rate” value in series [2] (doses at which the infarct inhibition action could be obtained) is “no influence”. The “fluorescence intensity (adhered U937 cells)” value in series [3] (10^-6 M) was 3710+969 arbitrary unit; in series [3] (10^-7 M) it was 4389+640 arbitrary unit; in series [3] (10^−4 M) it was -34+74 arbitrary unit; in series [3] (10^−5 M) it was 1968±187 arbitrary unit.
